Structures can show the parent of a compound that is named as a salt.
Key:
[1] = system: mice; experiment: Tail-flick test in mice; assay type: in vivo, mouse (male Charles River, Swiss Strain); settings: subcutaneous, 30 min pretreatment
Protocol: (B) Tail-flick test in mice
The methodology employed is based on that described by D'Amour and Smith, J. Pharmacol. Exp. Ther. 72. 74/1941.
Male Charles River mice (Swiss Strain), 22-34g body weight were used. Animals were allowed food and water ad libitum and were randomized into groups of 10 prior to experimentation.
Test compounds were dissolved in either distilled water or distilled water plus 0.1 M AMS and administered by the subcutaneous route in a final volume of 10 ml/Kg. Control animals received 10 ml/kg of the appropriate vehicle alone. Following a pretreatment period of 30 min., the mice were again placed under the heat source and the reaction tine re-determined.
Percentage quantal protection was determined as the number of mice in which the reaction time was doubled compared to pretreatment values, expressed as a percentage of the total number of mice in the group.

[2] = system: mice; experiment: P-phenylquinone-induced abdominal writhing test in mice; assay type: in vivo, mouse (male Charles River, Swiss Strain); settings: Mus musculus, sc; subcutaneous, 20 min pretreatment, p-phenylquinone 2 mg/Kg i.p.
Protocol: (A) P-phenylquinone-induced abdominal writing test in mice
The methodology employed is based on that described by Sigmund et al, Proc. Soc. Exptl. Biol. 95, 729/1957, modified by Milne and Twomey, Agents and Actions, 10, 31/1980.
Male Charles River mice (Swiss Strain), 25-36g body weight, were used. Animals were allowed food and water ad libitum and were randomized into groups of 10 prior to experimentation. Test compounds were dissolved in either distilled water or distilled water plus 0.1 M AMS, and administered by the subcutaneous route in a final volume of 10 ml/Kg. Control animals received 10 ml/Kg of the appropriate vehicle alone. Following a pretreatment period of 20 min., mice were injected intraperitoneally with p-phenylquinone, 2 mg/Kg at 37° C. in a final volume of […]. […] During this period the number of abdominal writhing responses per animal were recorded where writhing consists of an intermittent contraction of the abdomen associated with hind leg extension.
The degree of antinociceptive protection afforded by the test compound was determined as the mean number of writhing responses observed in the treated group (T) expressed as a percentage of the mean number of writhing responses in the control group (C) according to the following formula:
[1-(T/C]×100%=% graded protection

[3] = target: T1, Kappa opiate receptor (brain) (Cavia porcellus, UniProt P41144); experiment: Opiate receptor binding, kappa (brain); set-up: species or system guinea pig
T1 construct: performed on fresh guinea pig brain homogenate; from tissue; host or cells: guinea pig whole brain without cerebellum, homogenate
T1 sequence (P41144 whole entry): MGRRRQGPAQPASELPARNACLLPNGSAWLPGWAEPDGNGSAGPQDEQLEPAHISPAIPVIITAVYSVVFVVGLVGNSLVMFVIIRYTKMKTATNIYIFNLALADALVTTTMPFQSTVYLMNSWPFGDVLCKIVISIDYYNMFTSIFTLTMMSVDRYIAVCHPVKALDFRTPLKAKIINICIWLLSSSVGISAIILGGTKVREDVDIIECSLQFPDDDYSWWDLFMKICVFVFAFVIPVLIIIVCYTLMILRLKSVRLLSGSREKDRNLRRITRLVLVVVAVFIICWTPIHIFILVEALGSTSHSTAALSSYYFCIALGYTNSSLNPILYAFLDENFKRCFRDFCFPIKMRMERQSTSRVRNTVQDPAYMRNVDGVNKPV
Protocol: (§1) Radio receptor binding to μ and K sites is performed on fresh guinea pig brain homogenate prepared according to Kosterlitz. (1981).
(§2) Whole brain without cerebellum is homogenized in 50 mM, Tris-buffer (pH 7.4 at 0° C.) and centrifuged at 49,000×g×10 min.
(§3) The pellet is then resuspended in the same buffer, incubated at 37° C. for 45 min. and centrifuged again.
(§4) 1.9 ml of the final homogenate (1:100 in Tris-pH 7.4, 0° C.) is used for the binding assay.
The binding to the K-sites is performed using ^3 H-Ethyl Ketocyclazocine, a non-selective benzomorphan compound which binds to μ, δ and K-sites, in the presence of 100nM of unlabelled DAGO and 100nM of the enkephalin analogue [DAla^2 -DLeu^5 ]Enkephalin (DADLE), to prevent μ and δ binding respectively. […]
(§5) The radioactivity bound to the filters is counted by liquid scintillation spectrophotometry.
(§6) The non-specific binding is determined in the presence of 500nM of the benzomorphan non-selective compound Mr 2266.
(§7) The equilibrium dissociation constant (KD) and the maximum binding capacity (Bmax) are determined from the analysis of saturation curves, while the inhibition constant (Ki) is determined from the analysis of competition experiments (Hill 1910; Scatchard 1949; Cheng and Prusoff 1973; Gillan et al. 1980) Published references are summarised as follows: […]

[4] = target: T2, Kappa opiate receptor (spinal cord) (Cavia porcellus, UniProt P41144); experiment: Opiate receptor binding, kappa (spinal cord)
T2 construct: spinal cord kappa-receptors; from tissue
T2 sequence (P41144 whole entry): as above
Protocol: The binding to the K-sites is performed using ^3 H-Ethyl Ketocyclazocine, a non-selective benzomorphan compound which binds to μ, δ and K-sites, in the presence of 100nM of unlabelled DAGO and 100nM of the enkephalin analogue [DAla^2 -DLeu^5 ]Enkephalin (DADLE), to prevent μ and δ binding respectively.
Final homogenate with solutions of the cold ligand and of the labelled ligand is incubated for 40 min. at 25° C., filtered through Whatman GF/C glass filter discs and washed.
as §5, §6, §7

[5] = target: T3, Mu opiate receptor (brain) (Cavia porcellus, UniProt A0ACM8Q262); experiment: Opiate receptor binding, mu (brain); set-up: species or system guinea pig; settings: 3H-DAGO, 40 min, 25° C.
T3 construct: [3H]DAGO (DAMGO) displacement
T3 sequence (A0ACM8Q262 1-400): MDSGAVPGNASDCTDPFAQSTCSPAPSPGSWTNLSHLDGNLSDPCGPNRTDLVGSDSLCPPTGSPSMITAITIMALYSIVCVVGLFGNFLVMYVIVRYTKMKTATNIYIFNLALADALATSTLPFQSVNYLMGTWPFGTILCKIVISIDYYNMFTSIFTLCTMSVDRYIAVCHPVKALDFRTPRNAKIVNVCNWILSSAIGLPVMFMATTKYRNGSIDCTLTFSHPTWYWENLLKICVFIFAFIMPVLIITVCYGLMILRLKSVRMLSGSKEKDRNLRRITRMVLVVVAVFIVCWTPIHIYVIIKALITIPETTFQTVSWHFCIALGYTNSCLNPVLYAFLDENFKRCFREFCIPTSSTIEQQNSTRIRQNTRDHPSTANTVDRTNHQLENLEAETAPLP
Protocol: as §1, §2, §3, §4
^3 H [D-Ala^2, MePhe^4, Gly-ol^5 ] Enkephalin (^3 H-DAGO), an enkephalin analogue that binds selectively to μ receptor, is added to the biological substrate and incubated at 25° C. for 40 min., filtered through Whatman GF-C and washed with ice-cold Tris-buffer.
The filters are then dryed, solubilized in Filtercount and the radioactivity monitored. Non specific binding is determined in the presence of 10^-6 M Naloxone.
as §7

O=C1CCCc2cc(CC(=O)N3CCCCC3CN3CCCC3)ccc21 (stereo not drawn) [Example 1, 1-[1-oxo-3,4,-dihydro-(2H)-naphth-6-yl]acetyl-2-(pyrrolidin-1-yl)methyl-piperidine hydrochloride]
MOUSE TAIL-FLICK % Analgesia ([1]; dose 0.550 mg/kg): 50% | ED50 [2]: 0.235 mg/kg | Ki [3]: 81.7 nM | Ki [4]: 5.24 nM | Ki [5]: > 1000 nM

O=C1CCCc2cc(CC(=O)N3CCCC[C@H]3CN3CCCC3)ccc21 [Example 2, (2S)-1-[1-oxo-3,4,-dihydro-(2H)-naphth-6-yl]acetyl-2-(pyrrolidin-1-yl)methyl-piperidine hydrochloride]
MOUSE TAIL-FLICK % Analgesia ([1]; dose 0.233 mg/kg): 50% | ED50 [2]: 0.138 mg/kg | Ki [3]: 49 nM | Ki [4]: 2.21 nM | Ki [5]: 2980 nM

CC(=O)c1ccc(CC(=O)N2CCCC[C@H]2CN2CCCC2)cc1C [Example 4, (2S)-1-(3-methyl-4-acetylphenyl)acetyl-2-(pyrrolidin-1-yl)methyl-piperidinehydrochloride hydrate]
MOUSE TAIL-FLICK % Analgesia ([1]; dose 8.6 mg/kg): 80%

O=C1CCCc2ccc(CC(=O)N3CCCC[C@H]3CN3CCCC3)cc21 [Example 6, (2S)-1-[1-oxo-3,4-dihydro-(2H)-naphth-7-yl] acetyl-2-(pyrrolidin-1-yl)methyl-piperidine hydrochloride]
MOUSE TAIL-FLICK % Analgesia ([1]; dose 10 mg/kg): 80%

From patent US4994450A, “Azacyclic compounds and their use as analgesic agents” (Dr. Lo. Zambeletti S.p.A., priority 1988, dated 1991)
